The record followed here is US8277860B2, “Method of stabilizing 1,4-dihydroxy-2-naphthoic acid” (Meiji Co., Ltd., priority 2003, dated 2012).

A short description of data set [1]: Nitrogen gas substitution test: DHNA content during preparation and preservation of DHNA-containing plain yogurt. It is filed as physicochemical. The protocol: (§1) A 5 ml portion of each sample was passed through a solid phase extraction column (Oasis HLB, manufactured by Waters Corporation) conditioned with 5 ml of methanol and 4 ml of 1% (w/v) sodium ascorbate aqueous solution. After washing with 5 ml of an aqueous solution of 1% (w/v) sodium ascorbate and elution with 4 ml of an aqueous solution of 10% (w/v) sodium ascorbate/methanol (1:9), the thus obtained eluate was concentrated under reduced pressure. A 1 ml portion thereof was sampled and filled up with the aforementioned sodium ascorbate-containing methanol. The mixture was filtered through a 0.5 μm filter and subjected to HPLC (column: Cadenza CD-C18 (4.6×150 mm, manufactured by Imtact Corporation), mobile phase: acetonitrile, methanol, water and acetic acid (10:20:200:0.1, vol/vol/vol/vol, adjusted to pH 7 with aqueous ammonia), detector: UV detector, detection wavelength: 254 nm, flow rate: 1.5 ml/min, column temperature: 45° C., sample injection: 20 μl). […]
The DHNA content contained in the plain yogurt was measured in accordance with the aforementioned test example, at respective steps of before pasteurization of the mix, after pasteurization of the same, just after inoculation of the bulk starter and completion of the fermentation, and after the lapse of the preservation for 1 week and 2 weeks, according to the production of plain yogurt of this Example.

Data set [2] is described as follows: Nitrogen gas substitution test: DHNA content during preservation of DHNA-containing vegetable drink. The conditions noted are these: vegetable drink with ascorbic acid; nitrogen bubbled until dissolved oxygen 5 ppm; pasteurized 140° C. 3 seconds; ordinary temperature (25° C.) preservation, 2 months. In kind it is physicochemical. How it is done: as §1, with “μl). A calibration curve was prepared by preparing a 1 mg/ml (methanol solution) standard stock solution of a DHNA preparation (046-22422, manufactured by Wako Pure Chemical Industries, Ltd.) and using the solution after optionally diluting with methanol.” for “μl).”

For `O=C(O)c1cc(O)c2ccccc2c1O` [DHNA, 1,4-dihydroxy-2-naphthoic acid], in data set [1] (control plain yogurt mix without nitrogen gas bubbling (dissolved oxygen about 10 ppm), heating at 95° C. for 5 minutes), the “DHNA content after heat pasteurization in comparison with the content before heat pasteurization” value is listed as “about 30%”. Moreover, the “loss of DHNA during the preparation and preservation” value in data set [1] (plain yogurt mix bubbled with nitrogen gas (dissolved oxygen less than 1 ppm), pasteurized 95° C. 5 minutes, fermented 43° C. 4 hours, preserved in the dark at 10° C. for 2 weeks) is on record as “almost completely inhibited”. Besides, the “reduction of the DHNA content during preservation” value in data set [2] is on record as “can be inhibited for a prolonged period of time”.
